We go through nine molecules from ChEMBL document CHEMBL1201862, “PubChem BioAssay data set” (2004).

Activity calls are given as the source filed them.

Among the targets are Cytochrome P450 2C9 (Homo sapiens, UniProt P11712); Cytochrome P450 3A4 (Homo sapiens, UniProt P08684); Cytochrome P450 2D6 (Homo sapiens, UniProt P10635).
In data set [1] the target is T1, Short transient receptor potential channel 4 (Mus musculus, UniProt Q9QUQ5).
T1 sequence (Q9QUQ5 whole entry): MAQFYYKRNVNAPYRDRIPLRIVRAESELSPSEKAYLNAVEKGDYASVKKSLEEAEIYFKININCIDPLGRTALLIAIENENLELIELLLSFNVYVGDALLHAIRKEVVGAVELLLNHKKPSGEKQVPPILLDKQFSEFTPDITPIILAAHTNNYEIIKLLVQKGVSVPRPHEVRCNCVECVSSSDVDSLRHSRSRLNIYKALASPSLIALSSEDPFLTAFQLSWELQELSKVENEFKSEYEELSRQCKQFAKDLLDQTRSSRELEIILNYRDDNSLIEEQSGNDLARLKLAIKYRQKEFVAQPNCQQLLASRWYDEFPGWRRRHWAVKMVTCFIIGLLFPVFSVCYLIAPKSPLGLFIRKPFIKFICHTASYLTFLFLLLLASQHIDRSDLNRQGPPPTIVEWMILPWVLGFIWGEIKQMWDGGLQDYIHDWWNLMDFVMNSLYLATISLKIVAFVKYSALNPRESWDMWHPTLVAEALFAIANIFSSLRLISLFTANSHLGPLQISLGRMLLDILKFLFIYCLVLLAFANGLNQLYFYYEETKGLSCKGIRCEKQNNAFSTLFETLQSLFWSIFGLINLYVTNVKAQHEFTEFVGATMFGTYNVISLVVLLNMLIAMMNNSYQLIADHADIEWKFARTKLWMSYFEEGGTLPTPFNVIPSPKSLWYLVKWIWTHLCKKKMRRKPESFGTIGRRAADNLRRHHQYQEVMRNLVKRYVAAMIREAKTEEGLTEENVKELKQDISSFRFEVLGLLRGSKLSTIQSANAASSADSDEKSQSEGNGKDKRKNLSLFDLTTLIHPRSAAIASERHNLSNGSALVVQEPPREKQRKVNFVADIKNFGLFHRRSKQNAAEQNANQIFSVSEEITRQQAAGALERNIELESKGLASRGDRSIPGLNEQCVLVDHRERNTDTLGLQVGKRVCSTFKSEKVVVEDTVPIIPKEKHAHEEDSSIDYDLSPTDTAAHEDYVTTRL
Put plainly: block of DAMGO-driven TRPC4 calcium entry – cell-based, HEK293 TRPC4/mu-opioid, Fluo-4 calcium, dose response (AID 434942).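 Note: potency of inhibitors blocking the TRPC4 calcium response.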 The format is functional.

Data set [2] deals with HEK293. Put plainly: cells. The conditions noted are these: Homo sapiens.
For data set [3], the system named is HEK293. Put plainly: cells. Particulars: Homo sapiens. The source holds these as a separate data set.
Data set [4] is described as follows: viability of uninfected HEp-2 cells – cell-based, HTS, cytotoxicity control for RSV inhibitor project, dose response (AID 2410). The conditions noted are these: human respiratory syncytial virus. The format is functional.
The target of data set [5] is T2, Voltage-gated N-type calcium channel alpha-1B subunit/Amyloid beta A4 precursor protein-binding family A member 1 (Homo sapiens, UniProt Q00975+Q02410). The format is protein assay.
T2 sequence (Q00975 whole entry): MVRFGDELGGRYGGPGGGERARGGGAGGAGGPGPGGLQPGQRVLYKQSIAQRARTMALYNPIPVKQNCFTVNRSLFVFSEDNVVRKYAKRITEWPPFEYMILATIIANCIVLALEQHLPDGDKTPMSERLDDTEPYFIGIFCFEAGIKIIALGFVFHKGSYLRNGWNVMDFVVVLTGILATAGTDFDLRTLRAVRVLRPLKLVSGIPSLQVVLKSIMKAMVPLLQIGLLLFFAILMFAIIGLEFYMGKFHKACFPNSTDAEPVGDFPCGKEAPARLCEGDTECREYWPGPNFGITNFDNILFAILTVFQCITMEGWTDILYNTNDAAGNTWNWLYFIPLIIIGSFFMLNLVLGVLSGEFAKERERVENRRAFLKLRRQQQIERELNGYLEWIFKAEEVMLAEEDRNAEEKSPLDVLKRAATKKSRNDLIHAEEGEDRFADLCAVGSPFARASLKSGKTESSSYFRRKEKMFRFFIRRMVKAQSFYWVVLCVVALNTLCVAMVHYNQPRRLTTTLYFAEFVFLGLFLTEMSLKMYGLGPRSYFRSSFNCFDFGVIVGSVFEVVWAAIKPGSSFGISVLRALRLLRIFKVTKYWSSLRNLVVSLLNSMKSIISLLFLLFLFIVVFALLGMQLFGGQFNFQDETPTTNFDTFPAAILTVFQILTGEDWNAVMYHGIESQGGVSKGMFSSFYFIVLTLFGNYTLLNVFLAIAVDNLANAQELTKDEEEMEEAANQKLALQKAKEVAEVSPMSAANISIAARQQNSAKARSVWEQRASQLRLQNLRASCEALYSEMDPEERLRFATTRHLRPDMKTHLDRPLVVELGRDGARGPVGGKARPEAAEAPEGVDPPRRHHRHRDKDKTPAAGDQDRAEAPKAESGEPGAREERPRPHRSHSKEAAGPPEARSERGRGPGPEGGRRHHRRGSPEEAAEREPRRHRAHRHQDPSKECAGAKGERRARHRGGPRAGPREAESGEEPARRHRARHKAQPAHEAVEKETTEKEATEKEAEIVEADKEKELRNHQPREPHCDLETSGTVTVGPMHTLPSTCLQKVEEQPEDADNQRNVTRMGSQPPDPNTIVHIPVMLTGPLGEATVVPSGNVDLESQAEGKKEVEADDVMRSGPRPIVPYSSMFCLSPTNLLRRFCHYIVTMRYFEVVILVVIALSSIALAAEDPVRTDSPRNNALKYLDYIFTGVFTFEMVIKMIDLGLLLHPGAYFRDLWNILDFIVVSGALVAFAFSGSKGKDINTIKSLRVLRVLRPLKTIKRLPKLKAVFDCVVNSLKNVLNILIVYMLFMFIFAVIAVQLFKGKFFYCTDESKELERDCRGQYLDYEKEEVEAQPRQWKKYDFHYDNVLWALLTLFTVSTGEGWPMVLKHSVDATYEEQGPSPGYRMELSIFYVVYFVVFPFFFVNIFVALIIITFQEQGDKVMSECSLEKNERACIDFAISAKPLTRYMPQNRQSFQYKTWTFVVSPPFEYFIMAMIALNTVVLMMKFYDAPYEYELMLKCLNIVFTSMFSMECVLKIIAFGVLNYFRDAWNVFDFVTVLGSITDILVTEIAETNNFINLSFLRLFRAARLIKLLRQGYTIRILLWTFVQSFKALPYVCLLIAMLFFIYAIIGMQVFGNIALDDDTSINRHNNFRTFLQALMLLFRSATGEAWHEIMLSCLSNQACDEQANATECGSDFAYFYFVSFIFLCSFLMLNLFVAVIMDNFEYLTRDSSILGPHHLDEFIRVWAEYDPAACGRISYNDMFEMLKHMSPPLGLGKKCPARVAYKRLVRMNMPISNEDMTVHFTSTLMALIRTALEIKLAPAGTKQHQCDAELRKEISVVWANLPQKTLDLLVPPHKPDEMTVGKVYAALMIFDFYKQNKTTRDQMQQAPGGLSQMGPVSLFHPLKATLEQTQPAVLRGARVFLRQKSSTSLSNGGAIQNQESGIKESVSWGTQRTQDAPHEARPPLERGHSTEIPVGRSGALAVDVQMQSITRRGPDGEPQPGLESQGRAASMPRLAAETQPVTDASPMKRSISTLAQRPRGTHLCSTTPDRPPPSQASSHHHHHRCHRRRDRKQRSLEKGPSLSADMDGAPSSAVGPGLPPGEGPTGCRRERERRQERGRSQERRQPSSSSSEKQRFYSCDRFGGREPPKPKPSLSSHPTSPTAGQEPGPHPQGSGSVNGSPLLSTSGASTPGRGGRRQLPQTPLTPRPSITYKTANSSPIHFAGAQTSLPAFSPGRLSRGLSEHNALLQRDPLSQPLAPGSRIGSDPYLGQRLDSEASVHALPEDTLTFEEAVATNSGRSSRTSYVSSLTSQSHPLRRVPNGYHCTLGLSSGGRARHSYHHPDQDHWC
T2 sequence (Q02410 whole entry): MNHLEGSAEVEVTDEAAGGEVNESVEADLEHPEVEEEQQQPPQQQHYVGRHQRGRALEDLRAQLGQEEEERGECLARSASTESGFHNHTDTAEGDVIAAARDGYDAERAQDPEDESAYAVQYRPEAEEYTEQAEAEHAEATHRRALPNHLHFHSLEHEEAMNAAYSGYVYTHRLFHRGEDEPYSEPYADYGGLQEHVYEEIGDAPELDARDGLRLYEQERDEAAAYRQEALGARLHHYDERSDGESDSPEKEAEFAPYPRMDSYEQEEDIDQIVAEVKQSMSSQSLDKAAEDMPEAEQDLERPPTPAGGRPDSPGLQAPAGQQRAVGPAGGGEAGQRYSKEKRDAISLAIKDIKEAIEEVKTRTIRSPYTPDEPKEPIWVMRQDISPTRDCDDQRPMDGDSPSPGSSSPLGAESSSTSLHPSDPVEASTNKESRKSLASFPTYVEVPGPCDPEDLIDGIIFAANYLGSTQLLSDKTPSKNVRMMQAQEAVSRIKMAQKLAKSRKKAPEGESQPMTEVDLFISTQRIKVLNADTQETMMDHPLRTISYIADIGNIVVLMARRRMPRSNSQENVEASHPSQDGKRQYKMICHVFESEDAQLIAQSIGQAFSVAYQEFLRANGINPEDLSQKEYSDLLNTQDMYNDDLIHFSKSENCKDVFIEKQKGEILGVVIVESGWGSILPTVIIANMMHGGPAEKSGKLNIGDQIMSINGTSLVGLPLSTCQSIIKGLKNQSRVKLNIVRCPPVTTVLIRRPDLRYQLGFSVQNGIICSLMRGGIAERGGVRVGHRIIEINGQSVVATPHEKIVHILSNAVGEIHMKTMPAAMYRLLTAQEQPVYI
Data set [6] addresses Luciferin 4-monooxygenase (Photinus pyralis, UniProt P08659). Kind of data set: inhibition of purified Photinus pyralis luciferase – biochemical, luminescence, dose response (AID 1891).
The nature of data set [7]: Luminescence Cell-Based Dose Confirmation HTS to Identify Inhibitors of Platelet Dense Granule Release. [Related pubchem assays: 1663 (Primary HTS), 1678 (Summary of Project)]. The format is functional.
Data set [8] concerns the target T2, Voltage-gated N-type calcium channel alpha-1B subunit/Amyloid beta A4 precursor protein-binding family A member 1. The format is protein assay. The source holds these as a separate data set.
Data set [9] in a line: viability of PTEN-deleted HCT116 cells – cell-based, HCT116 PTEN knockout, dose response (AID 1047).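 Note: HCT116 colon tumor cells with PTEN knocked out; cells exposed to compound for 60 hours before readout; potency for loss of cell viability measured by luminescence.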 The format is functional.
Data set [10] can be described thus: viability of HCT116 lacking mutant beta-catenin – cell-based, human colon tumor, dose response (AID 1045).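 Note: HCT116 colon tumor cells with beta catenin knocked out; cells exposed to compound for 60 hours.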 The format is functional.
Data set [11] has as its target Heat shock protein HSP 90-alpha (Homo sapiens, UniProt P07900). The format is functional, organism-based.
The nature of data set [12]: reduction of Shn3 3'UTR-driven luciferase in osteoblasts – cell-based, Clone20 osteoblasts, firefly luciferase, cherry-picked, dose response (AID 624132).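 Note: firefly luciferase luminescence from reporter carrying the Shn3 3'UTR in osteoblasts.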 The format is functional.
The nature of data set [13]: loss of viability in HepG2 cells – cell-based, CellTiter-Glo, cherry-picked, cytotoxicity control for Shn3 inhibitor project, dose response (AID 624134). The format is functional. Background: In ATP-based viability assays light output follows the ATP content of the culture.
Data set [14] in a line: non-specific 3'UTR reporter inhibition in Clone20-Shn3RL – cell-based, Renilla luciferase, cherry-picked, counter-screen for Shn3 inhibitor project, dose response (AID 624133). The format is functional. In general terms: The purpose of a counterscreen is to sort out artefacts and off-target activity.
The next data set deals with Cytochrome P450 2C19 (Homo sapiens, UniProt P33261). Kind of data set: Cytochrome panel assay with activity outcomes. Panel member name: p450-cyp2c19 Compounds with AC50 equal or less than 10 uM are considered active. The conditions noted are these: read-out: AC50. The format is functional.
The next data set addresses T3, Cytochrome P450 1A2 (Homo sapiens, UniProt P05177).
T3 sequence (P05177 whole entry): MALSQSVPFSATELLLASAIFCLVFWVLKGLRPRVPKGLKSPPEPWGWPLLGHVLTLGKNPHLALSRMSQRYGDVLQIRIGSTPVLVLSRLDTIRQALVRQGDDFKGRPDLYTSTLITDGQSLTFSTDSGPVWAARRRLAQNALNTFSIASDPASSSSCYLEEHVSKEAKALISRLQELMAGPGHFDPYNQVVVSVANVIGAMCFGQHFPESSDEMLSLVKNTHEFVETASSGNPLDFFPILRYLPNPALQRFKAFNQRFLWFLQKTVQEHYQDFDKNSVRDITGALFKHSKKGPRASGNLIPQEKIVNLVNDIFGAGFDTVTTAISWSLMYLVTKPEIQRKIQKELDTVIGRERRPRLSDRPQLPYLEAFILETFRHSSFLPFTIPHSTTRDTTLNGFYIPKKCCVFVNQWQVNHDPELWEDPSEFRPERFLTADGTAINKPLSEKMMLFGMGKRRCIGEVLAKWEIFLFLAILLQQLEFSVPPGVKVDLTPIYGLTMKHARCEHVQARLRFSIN

Data set [15] can be described thus: Luminescence Cell-Based Dose Confirmation HTS to Identify Activators of 5'UTR Stem-Loop Driven Alpha-Synuclein mRNA Translation in H4 Neuroglioblastoma Cells. [Related pubchem assays: 1829 (Project Summary), 1814 (Primary HTS)]. The format is functional.
Data set [16] can be described thus: Luminescence Cell-Based Dose Response HTS to Identify Activators of Luciferase Translation or Activity in H4 […] Cells. [Related pubchem assays: 1829 (Project Summary), 1814 (Primary HTS)]. The format is functional.
For a further data set, the system named is H4. Kind of data set: Luminescence Cell-Based Dose Response HTS to Identify Activators of 5'UTR Stem-Loop Driven Prion Protein mRNA Translation in H4 Neuroglioblastoma Cells. [Related pubchem assays: 1829 (Project Summary), 1814 (Primary HTS)]. The format is functional. Particulars: Homo sapiens.
Data set [17] concerns Vero. Put plainly: cells. The format is functional, cell-based. The conditions noted are these: Chlorocebus sabaeus.
For data set [18], the system named is Vero. Kind of data set: cells. The format is functional. The conditions noted are these: Chlorocebus sabaeus.
Data set [19] in a line: luciferase reporter signal suppression in cells – H4 neuroglioma cells, luminescence, dose response (AID 1990). The format is functional, cell-based.
Data set [20] has as its system BJ. Kind of data set: BJ-TERT fibroblast viability loss – cell-based, RAS-independent, luminescence, dose response (AID 1933). The format is functional. The conditions noted are these: Homo sapiens.
Data set [21] can be described thus: Luminescence Cell-Based Dose Response HTS to Identify Inhibitors of 5'UTR Stem-Loop Driven Prion Protein mRNA Translation in H4 Neuroglioblastoma Cells. [Related pubchem assays: 1827 (Project Summary), 1813 (Primary HTS)]. The format is functional.
Data set [22] concerns BJ. Put plainly: cells. The format is functional, cell-based. The conditions noted are these: Homo sapiens.
The subject of data set [23] is BJ. Kind of data set: BJ-TERT-LT-ST fibroblast viability loss – cell-based, RAS-independent, luminescence, dose response (AID 1935).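 Note: BJ fibroblasts immortalized with TERT plus LT and ST oncogenes.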 The format is functional. The conditions noted are these: Homo sapiens.
A short description of data set [24]: DRD fibroblast viability loss – cell-based, non-viral oncogenic, luminescence, dose response (AID 1934). The format is functional. The conditions noted are these: Homo sapiens.
In data set [25] the target is T4, Mannose-6-phosphate isomerase (Homo sapiens, UniProt P34949).
T4 sequence (P34949 whole entry): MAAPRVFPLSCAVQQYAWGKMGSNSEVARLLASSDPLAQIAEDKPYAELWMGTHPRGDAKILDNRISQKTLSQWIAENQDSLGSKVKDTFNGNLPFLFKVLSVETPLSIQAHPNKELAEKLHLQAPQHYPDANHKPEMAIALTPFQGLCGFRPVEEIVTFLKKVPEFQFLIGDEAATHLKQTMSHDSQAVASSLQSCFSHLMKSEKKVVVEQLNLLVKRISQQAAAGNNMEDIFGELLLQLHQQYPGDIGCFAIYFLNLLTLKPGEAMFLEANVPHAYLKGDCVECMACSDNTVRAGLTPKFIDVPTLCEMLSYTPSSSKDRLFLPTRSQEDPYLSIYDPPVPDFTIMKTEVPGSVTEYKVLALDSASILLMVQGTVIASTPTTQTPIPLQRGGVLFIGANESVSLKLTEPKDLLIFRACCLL
Kind of data set: phosphomannose isomerase inhibition – biochemical, fluorescence intensity, confirmation (AID 1535).

For the next data set, the target named is T5, Phosphomannomutase 2 (Homo sapiens, UniProt O15305).
T5 sequence (O15305 whole entry): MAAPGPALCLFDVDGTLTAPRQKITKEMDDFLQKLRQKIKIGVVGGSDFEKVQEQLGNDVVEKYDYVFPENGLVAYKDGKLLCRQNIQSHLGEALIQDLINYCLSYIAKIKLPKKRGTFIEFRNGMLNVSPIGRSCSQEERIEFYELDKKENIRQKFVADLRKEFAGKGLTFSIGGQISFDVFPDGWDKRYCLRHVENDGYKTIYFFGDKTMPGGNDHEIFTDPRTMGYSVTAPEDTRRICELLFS
Kind of data set: Counter screen SAR assay for PMM2 inhibitors via a fluorescence intensity assay. [Related pubchem assays (depositor defined):AID1545, AID1574].

Data set [26] has as its target Glucose-6-phosphate 1-dehydrogenase (Homo sapiens, UniProt P11413). Kind of data set: inhibition of Homo sapiens G6PD, dose series – biochemical, fluorescence, selectivity assay for P. falciparum G6PD inhibitor project, dose response (AID 504792). The format is functional.

The EC50 is the midpoint of the concentration-response curve. In general, CC50 refers to the concentration at which the toxic effect on the cells reaches its halfway point. As a reminder, the IC50 is the concentration needed to halve the response being measured. For orientation: AC50 means the concentration giving half of the maximal activity seen.

Chain of Cytochrome P450 2C9 (P11712 whole entry): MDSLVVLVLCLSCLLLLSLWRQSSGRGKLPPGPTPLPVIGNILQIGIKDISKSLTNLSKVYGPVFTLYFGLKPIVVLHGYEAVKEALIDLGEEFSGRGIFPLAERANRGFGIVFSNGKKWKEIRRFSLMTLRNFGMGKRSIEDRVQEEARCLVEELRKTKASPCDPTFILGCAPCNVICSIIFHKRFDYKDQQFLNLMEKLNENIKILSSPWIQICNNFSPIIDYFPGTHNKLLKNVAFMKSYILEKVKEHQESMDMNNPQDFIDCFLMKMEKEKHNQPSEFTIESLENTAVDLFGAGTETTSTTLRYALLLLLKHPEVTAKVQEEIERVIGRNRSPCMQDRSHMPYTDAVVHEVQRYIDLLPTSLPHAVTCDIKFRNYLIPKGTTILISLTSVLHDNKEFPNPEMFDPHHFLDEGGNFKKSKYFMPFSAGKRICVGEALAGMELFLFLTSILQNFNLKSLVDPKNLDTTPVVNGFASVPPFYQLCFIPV
Chain of Cytochrome P450 3A4 (P08684 whole entry): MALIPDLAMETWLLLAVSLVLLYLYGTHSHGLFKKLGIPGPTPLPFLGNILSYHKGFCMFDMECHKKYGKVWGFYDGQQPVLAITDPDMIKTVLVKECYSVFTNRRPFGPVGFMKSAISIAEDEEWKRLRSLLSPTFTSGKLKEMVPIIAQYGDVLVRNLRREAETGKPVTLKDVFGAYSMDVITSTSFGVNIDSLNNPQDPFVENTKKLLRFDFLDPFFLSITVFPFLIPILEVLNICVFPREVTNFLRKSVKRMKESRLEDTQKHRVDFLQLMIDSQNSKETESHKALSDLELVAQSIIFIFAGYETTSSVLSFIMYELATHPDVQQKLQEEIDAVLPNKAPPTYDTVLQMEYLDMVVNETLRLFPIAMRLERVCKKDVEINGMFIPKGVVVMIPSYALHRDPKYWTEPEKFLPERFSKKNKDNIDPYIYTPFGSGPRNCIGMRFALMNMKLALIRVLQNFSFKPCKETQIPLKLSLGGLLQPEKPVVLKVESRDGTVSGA
Chain of Cytochrome P450 2D6 (P10635 whole entry): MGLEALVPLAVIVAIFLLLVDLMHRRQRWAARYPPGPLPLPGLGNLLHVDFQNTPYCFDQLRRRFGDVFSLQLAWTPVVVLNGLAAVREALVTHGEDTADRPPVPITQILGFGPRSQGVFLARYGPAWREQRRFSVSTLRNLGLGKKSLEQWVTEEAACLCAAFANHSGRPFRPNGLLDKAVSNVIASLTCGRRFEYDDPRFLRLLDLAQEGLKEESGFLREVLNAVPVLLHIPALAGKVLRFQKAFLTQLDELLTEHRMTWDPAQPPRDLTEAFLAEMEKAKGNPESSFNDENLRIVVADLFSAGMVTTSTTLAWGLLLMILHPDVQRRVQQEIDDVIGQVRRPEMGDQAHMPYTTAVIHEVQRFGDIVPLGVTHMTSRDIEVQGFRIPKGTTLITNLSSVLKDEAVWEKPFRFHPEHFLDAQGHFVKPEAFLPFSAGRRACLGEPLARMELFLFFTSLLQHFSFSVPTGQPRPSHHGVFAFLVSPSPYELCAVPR

As to `COCCn1c(SCC(=O)Nc2ccccc2OC)nc2c3ccccc3nc-2c1O`, the EC50 was 3.76 µM (active) in data set [1], > 59.6 µM (inactive) with HEK293 [2] and > 59.6 µM (inactive) with HEK293 [3].
`Cc1ccc(NN2C(=O)C=C(c3ccc(Cl)cc3)C2=O)cc1`: the CC50 in data set [4] is 10.8 µM (active). In addition, the results for the IC50 in data set [5] and in data set [8] were 11 µM (active) and > 50 µM (inactive), respectively. For the same molecule, the EC50 was > 112 µM (not active) in data set [6]; 9.18 µM (active) in [7]; 19.9 µM (active) in data set [9]; 24.1 µM (active) in data set [10]; > 59.6 µM (inactive) in the data set on HEK293 [2]; > 59.6 µM (inactive) in the data set on HEK293 [3]. Also, the half-maximal activity concentration (AC50) was < 0.195 µM (active) in data set [11], 6.53 µM (active) in [12], 19.8 µM (active) in data set [13] and 12.6 µM (active) in [14].
`COC(=O)c1ccccc1NC(=O)C(CCS(C)(=O)=O)NC(C)=O` (stereo not given): the AC50 on Cytochrome P450 2C19 is 39.8 µM (inconclusive); on Cytochrome P450 1A2, 20 µM (inconclusive); on Cytochrome P450 2C9 it was “inconclusive”.
As for `O=C(c1ccc(Cl)cc1)C(CN1CCCC1)c1ccccc1` (stereo not given), the EC50 (in [15]; in data set [16]; in the data set on H4) was > 120 µM (not active) in each case. Moreover, the IC50 in the data set on Vero [17] is > 25 µM (active). In the data set on Vero [18], the CC50 was 23 µM (active).
Regarding `CC(C)c1ccc(NC(=O)[C@H](Cc2c[nH]c3ccccc23)NC(=O)[C@@H]2Cc3ccccc3CN2)cc1`, the EC50 in data set [19] was > 120 µM (not active); in the data set on BJ [20], > 150 µM (not active); in data set [21], 20.1 µM (active); in the data set with BJ [22] it was 70.9 µM (active); in the data set with BJ [23], > 150 µM (not active); in data set [24], 119 µM (active). The IC50 in the data set on Vero [17] was 5.06 µM (active). Further, in the data set on Vero [18], the CC50 was 23.5 µM (active).
For the molecule `Cc1cc2cc(CNC(=O)CC(C)C)ccc2n1C`, the AC50 on Cytochrome P450 3A4 was 15.8 µM (inconclusive); at Cytochrome P450 2C9, “inconclusive”.
For the molecule `COc1ccc(OC)c(S(=O)(=O)N2CCC(C(=O)NCCc3ccccc3)CC2)c1`, the AC50 at Cytochrome P450 2D6 was 2.24 µM (inconclusive); on Cytochrome P450 3A4 it was 39.8 µM (inconclusive); at Cytochrome P450 2C9 it was “inconclusive”.
Take `Cc1cc2n(n1)SC(Nc1cccc3ccccc13)N2` (stereo not given): the IC50 in [25] is > 50 µM (inactive); at Phosphomannomutase 2, > 100 µM (inactive).
For the molecule `CCc1nnc(NC(=O)c2ccc(Cl)nc2)s1`, the IC50 in [26] is > 80 µM (inactive).
